Reference: PubChem BioAssay AID330 (DTP/NCI, 2004)
Several values for one entry are separate records, joined by “and”; a condition that tells them apart may be missing. Equal entries are not always repeated. Toxic doses and inconclusive results are not listed.

System: P388 leukemia ip, CD2F1 mice, survival T/C
Test: NCI In Vivo Anticancer Drug Screen. Data for tumor model P388 Leukemia (intraperitoneal) in CD2F1 (CDF1) mice
Conditions: endpoint: median survival time, higher = longer survival
Summary of the method: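 Mice carrying the transplanted tumor received test compound or vehicle. Survival was recorded in each group, and the value is the treated-group measurement divided by that of the vehicle-treated control group.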

[1] = dose: 12.5 mg/kg/injection, schedule: Q01DX009 (ip), vehicle: distilled water + Tween-80
[2] = dose: 25.0 mg/kg/injection, schedule: Q01DX009 (ip), vehicle: distilled water + Tween-80
[3] = dose: 50.0 mg/kg/injection, schedule: Q01DX009 (ip), vehicle: distilled water + Tween-80
[4] = dose: 100.0 mg/kg/injection, schedule: Q01DX009 (ip), vehicle: distilled water + Tween-80
[5] = dose: 200.0 mg/kg/injection, schedule: Q01DX009 (ip), vehicle: distilled water + Tween-80
[6] = dose: 50.0 mg/kg/injection, schedule: Q01DX009 (ip), vehicle: Klucel (hydroxypropylcellulose) (HPC)
[7] = dose: 100.0 mg/kg/injection, schedule: Q01DX009 (ip), vehicle: Klucel (hydroxypropylcellulose) (HPC)
[8] = dose: 200.0 mg/kg/injection, schedule: Q01DX009 (ip), vehicle: Klucel (hydroxypropylcellulose) (HPC)
[9] = dose: 60.0 mg/kg/injection, schedule: Q01DX005 (ip), vehicle: Klucel (hydroxypropylcellulose) (HPC)
[10] = dose: 120.0 mg/kg/injection, schedule: Q01DX005 (ip), vehicle: Klucel (hydroxypropylcellulose) (HPC)
[11] = dose: 240.0 mg/kg/injection, schedule: Q01DX005 (ip), vehicle: Klucel (hydroxypropylcellulose) (HPC)
[12] = dose: 50.0 mg/kg/injection, schedule: Q01DX009 (ip), vehicle: saline with Tween-80
[13] = dose: 100.0 mg/kg/injection, schedule: Q01DX009 (ip), vehicle: saline with Tween-80
[14] = dose: 200.0 mg/kg/injection, schedule: Q01DX009 (ip), vehicle: saline with Tween-80
[15] = dose: 50.0 mg/kg/injection, schedule: Q01DX005 (ip), vehicle: Klucel (hydroxypropylcellulose) (HPC)
[16] = dose: 100.0 mg/kg/injection, schedule: Q01DX005 (ip), vehicle: Klucel (hydroxypropylcellulose) (HPC)
[17] = dose: 200.0 mg/kg/injection, schedule: Q01DX005 (ip), vehicle: Klucel (hydroxypropylcellulose) (HPC)
[18] = dose: 50.0 mg/kg/injection, schedule: Q01DX009 (ip), vehicle: saline
[19] = dose: 100.0 mg/kg/injection, schedule: Q01DX009 (ip), vehicle: saline
[20] = dose: 200.0 mg/kg/injection, schedule: Q01DX009 (ip), vehicle: saline

SMILES: [Cu+2].[NH-]C(CCC(N)=O)C(=O)O.[NH-]C(CCC(N)=O)C(=O)O (stereo not drawn)
- T/C (dose: 6.25 mg/kg/injection, schedule: Q04DX003 (ip), vehicle: saline): 100 % of control
- T/C (dose: 12.5 mg/kg/injection, schedule: Q04DX003 (ip), vehicle: saline): 90 % of control

SMILES: O=C1c2ccccc2C(O)(C(=O)O)C1(O)CC=C(Cl)Cl (stereo not drawn)
- T/C [1]: 103 % of control
- T/C [2]: 99 % of control
- T/C [3]: 91 % of control
- T/C [4]: 95 % of control
- T/C [5]: 91 % of control

SMILES: COC1=C(OC)C(=O)C(SCCCCCCC2CCCCC2)=CC1=O
- T/C (dose: 16.0 mg/kg/injection, schedule: Q01DX009 (ip), vehicle: Klucel (hydroxypropylcellulose) (HPC)): 96 % of control
- T/C (dose: 32.0 mg/kg/injection, schedule: Q01DX009 (ip), vehicle: Klucel (hydroxypropylcellulose) (HPC)): 92 % of control

SMILES: O=P1(c2ccccc2)OCC2=C(c3ccccc3)CC2=C1c1ccccc1 (stereo not drawn)
- T/C [6]: 105 % of control
- T/C [7]: 103 % of control
- T/C [8]: 105 % of control

SMILES: CCOC(=O)Nc1cc(NC(C)/C(=N/O)c2ccccc2)c([N+](=O)[O-])c(N)n1 (stereo not drawn)
- T/C [9]: 157 % of control and 176 % of control
- T/C [10]: 166 % of control and 186 % of control
- T/C [11]: 174 % of control and 180 % of control

SMILES: O=c1[nH]c(CNCCO)nc2sc3c(c12)CCCC3
- T/C [12]: 100 % of control
- T/C [13]: 105 % of control
- T/C [14]: 96 % of control

SMILES: COc1ccc(N(C)C(=O)/C=C/N2CCCCC2)cc1
- T/C (dose: 12.5 mg/kg/injection, schedule: Q01DX005 (ip), vehicle: Klucel (hydroxypropylcellulose) (HPC)): 107 % of control
- T/C (dose: 25.0 mg/kg/injection, schedule: Q01DX005 (ip), vehicle: Klucel (hydroxypropylcellulose) (HPC)): 98 % of control
- T/C [15]: 114 % of control and 98 % of control
- T/C [16]: 124 % of control and 96 % of control
- T/C [17]: 109 % of control

SMILES: O=C1c2ccccc2COC1c1ccccc1 (stereo not drawn)
- T/C [18]: 108 % of control
- T/C [19]: 111 % of control
- T/C [20]: 118 % of control

SMILES: COc1ccc(CN2CCc3c(cccc3[N+](=O)[O-])C2)cc1
- T/C (dose: 100.0 mg/kg/injection, schedule: Q04DX003 (ip), vehicle: Klucel (hydroxypropylcellulose) (HPC)): 98 % of control
- T/C (dose: 200.0 mg/kg/injection, schedule: Q04DX003 (ip), vehicle: Klucel (hydroxypropylcellulose) (HPC)): 103 % of control
- T/C (dose: 400.0 mg/kg/injection, schedule: Q04DX003 (ip), vehicle: Klucel (hydroxypropylcellulose) (HPC)): 96 % of control

SMILES: C/C(=N\O)C1(O)CCCCC1
- T/C [6]: 108 % of control
- T/C [7]: 108 % of control
- T/C [8]: 105 % of control
- T/C (dose: 400.0 mg/kg/injection, schedule: Q01DX009 (ip), vehicle: Klucel (hydroxypropylcellulose) (HPC)): 113 % of control

SMILES: COc1ccccc1NC(=O)C(N=Nc1ccc(-c2nc3ccc(C)c(S(=O)(=O)O)c3s2)cc1S(=O)(=O)O)C(C)=O (stereo not drawn)
- T/C [18]: 104 % of control
- T/C [19]: 105 % of control
- T/C [20]: 109 % of control

SMILES: O=C1NC(c2ccccc2)(c2ccccc2)C(=O)N1CN1CCc2ccccc2C1
- T/C [9]: 90 % of control
- T/C [10]: 91 % of control
- T/C [11]: 90 % of control

SMILES: O=C1CC2(CCCc3sccc32)C(=O)N1 (stereo not drawn)
- T/C (dose: 60.0 mg/kg/injection, schedule: Q01DX005 (ip), vehicle: saline with Tween-80): 101 % of control
- T/C (dose: 120.0 mg/kg/injection, schedule: Q01DX005 (ip), vehicle: saline with Tween-80): 94 % of control
- T/C (dose: 240.0 mg/kg/injection, schedule: Q01DX005 (ip), vehicle: saline with Tween-80): 92 % of control

SMILES: CN(C)C(CC(=O)O)C(=O)O (stereo not drawn)
- T/C (dose: 50.0 mg/kg/injection, schedule: Q01DX009 (ip), vehicle: water): 108 % of control
- T/C (dose: 100.0 mg/kg/injection, schedule: Q01DX009 (ip), vehicle: water): 98 % of control
- T/C (dose: 200.0 mg/kg/injection, schedule: Q01DX009 (ip), vehicle: water): 99 % of control

SMILES: CC1C(=O)OC23CC(C)(C)C4OC42C(C)CCC13O (stereo not drawn)
- T/C (dose: 0.37 mg/kg/injection, schedule: Q01DX009 (ip), vehicle: saline): 93 % of control
- T/C (dose: 0.75 mg/kg/injection, schedule: Q01DX009 (ip), vehicle: saline): 99 % of control
- T/C (dose: 1.5 mg/kg/injection, schedule: Q01DX009 (ip), vehicle: saline): 97 % of control
- T/C (dose: 3.0 mg/kg/injection, schedule: Q01DX009 (ip), vehicle: saline): 99 % of control

SMILES: Cc1ccc(Cl)cc1NC(=O)N(C)CCOC(=O)Nc1cccc(Cl)c1
- T/C (dose: 60.0 mg/kg/injection, schedule: Q01DX005 (ip), vehicle: Klucel + Tween-80): 93 % of control
- T/C (dose: 120.0 mg/kg/injection, schedule: Q01DX005 (ip), vehicle: Klucel + Tween-80): 92 % of control

SMILES: CC1=CN2C(c3ccccc3)=NON(c3ccc(C)cn3)C2C=C1 (stereo not drawn)
- T/C (dose: 200.0 mg/kg/injection, schedule: Q01DX005 (ip), vehicle: saline with Tween-80): 92 % of control

SMILES: CC(C)(C)c1cc(NC(=O)C(F)(F)F)c(Cl)c(C(C)(C)C)c1O
- T/C [15]: 109 % of control
- T/C [16]: 100 % of control
- T/C [17]: 108 % of control

SMILES: S=c1nc(-c2nc(=S)[nH]c3c2CCCCC3)c2c([nH]1)CCCCC2
- T/C [9]: 97 % of control
- T/C [10]: 96 % of control
- T/C [11]: 92 % of control

SMILES: Cc1cc(C)[n+]2n1C(=O)C(c1ccc(C3C(=O)n4c(C)cc(C)[n+]4C3=O)cc1)C2=O (stereo not drawn)
- T/C (dose: 50.0 mg/kg/injection, schedule: Q01DX005 (ip), vehicle: Klucel + Tween-80): 99 % of control
- T/C (dose: 100.0 mg/kg/injection, schedule: Q01DX005 (ip), vehicle: Klucel + Tween-80): 97 % of control
- T/C (dose: 200.0 mg/kg/injection, schedule: Q01DX005 (ip), vehicle: Klucel + Tween-80): 100 % of control

SMILES: CC1CC2(c3ccccc3)C(=O)NC(=O)N=C2O1 (stereo not drawn)
- T/C (dose: 100.0 mg/kg/injection, schedule: Q04DX002 (ip), vehicle: Klucel (hydroxypropylcellulose) (HPC)): 105 % of control
- T/C (dose: 200.0 mg/kg/injection, schedule: Q04DX002 (ip), vehicle: Klucel (hydroxypropylcellulose) (HPC)): 109 % of control
- T/C (dose: 400.0 mg/kg/injection, schedule: Q04DX002 (ip), vehicle: Klucel (hydroxypropylcellulose) (HPC)): 105 % of control

SMILES: O=C(C[n+]1ccn(CC(OCc2ccc(Cl)cc2Cl)c2ccc(Cl)cc2Cl)c1)c1ccc(F)cc1 (stereo not drawn)
- T/C (dose: 3.12 mg/kg/injection, schedule: Q01DX005 (ip), vehicle: saline with Tween-80): 101 % of control
- T/C (dose: 6.25 mg/kg/injection, schedule: Q01DX005 (ip), vehicle: saline with Tween-80): 95 % of control
- T/C (dose: 12.5 mg/kg/injection, schedule: Q01DX005 (ip), vehicle: saline with Tween-80): 95 % of control

SMILES: CCCCOC(=O)NC(=O)c1cc2cc(Cl)ccc2oc1=O
- T/C (dose: 50.0 mg/kg/injection, schedule: Q01DX005 (ip), vehicle: saline with Tween-80): 95 % of control
- T/C (dose: 100.0 mg/kg/injection, schedule: Q01DX005 (ip), vehicle: saline with Tween-80): 88 % of control

SMILES: COc1cc2ccc3c(c2cc1OC)C=[N+](C)CC3
- T/C (dose: 44.0 mg/kg/injection, schedule: Q01DX009 (ip), vehicle: saline with Tween-80): 100 % of control
- T/C (dose: 66.0 mg/kg/injection, schedule: Q01DX009 (ip), vehicle: saline with Tween-80): 109 % of control
- T/C [13]: 109 % of control
- T/C (dose: 150.0 mg/kg/injection, schedule: Q01DX009 (ip), vehicle: saline with Tween-80): 113 % of control

SMILES: O=c1[nH]/c(=C/c2ccc(CO)o2)c(=O)[nH]/c1=C\c1ccc(CO)o1
- T/C [1]: 90 % of control
- T/C [2]: 89 % of control
- T/C [3]: 87 % of control
- T/C [4]: 87 % of control
- T/C [5]: 90 % of control

SMILES: CCN(CC)CC(C)Nc1cc(C)nc2c1ccc1c2ccc2c(NC(C)CN(CC)CC)cc(C)nc21 (stereo not drawn)
- T/C [1]: 113 % of control
- T/C [2]: 111 % of control
- T/C [3]: 119 % of control

SMILES: C(=N/c1ccccn1)/c1ccc2c(c1)OCO2
- T/C [6]: 100 % of control
- T/C [7]: 105 % of control
- T/C [8]: 101 % of control

SMILES: NCCc1cc(O)c(O)c(O)c1
- T/C [18]: 108 % of control and 109 % of control
- T/C [19]: 117 % of control
- T/C (dose: 400.0 mg/kg/injection, schedule: Q01DX009 (ip), vehicle: saline): 153 % of control and 168 % of control

SMILES: O=C(CCl)Nc1c(Br)cc(F)cc1Br
- T/C [12]: 88 % of control
- T/C [13]: 99 % of control
- T/C [14]: 104 % of control

SMILES: O=C(/C=N/O)Nc1ccccc1I
- T/C [15]: 100 % of control
- T/C [16]: 98 % of control
- T/C [17]: 115 % of control
